Results from patent publication US11278526B2, “Compounds and methods for treating lupus” (RECEPTOS LLC, priority 2016, dated 2022).

What was measured:
Type in all cases: in vivo
[1] = test system: IFNAR1; assay: IFNAR1 expression in splenic pDC cells; conditions: NZBWF1 mice, at termination, after five months of treatment
Method: (§1) As discussed above, IFNAR1 (Interferon alpha receptor 1) and its ligand IFNα are important modulators of lupus-associated autoimmune response in humans. Serum IFNα was measured by ELISA (eBioscience kit) at 23, 29, 36, and 42 weeks (FIG. 17). Assay sensitivity was 7.48 pg/ml (dotted line). […] However, several samples at multiple time points were below the sensitivity of the assay (data not shown), consistent with reports that the NZBWF1 model has a weak IFNα signature. To determine whether compound 148 affected IFNAR1 expression, percent surface expression and MFI expression were measured in pDC cells at termination (FIGS. 18A and 18B, respectively).

[2] = test system: IFNα; assay: Serum IFNα by ELISA; conditions: NZBWF1 mice; all treatment groups 0.3, 1.0, 3.0 mg/kg PO QD; weeks 23, 29, 36, 42; assay sensitivity 7.48 pg/ml
Method: as §1

[3] = test system: IFN-inducible genes; assay: mRNA expression of genes responsive to type-1 interferon signaling; conditions: NZBWF1 mice; 3 mpk PO

## CC(C)Oc1ccc(-c2nc(-c3cccc4c3CC[C@@H]4N)no2)cc1C#N [compound 148, (S)-5-(3-(1-amino-2,3-dihydro-1H-inden-4-yl)-1,2,4-oxadiazol-5-yl)-2-isopropoxy-benzonitrile]
[1]
  MFI of IFNAR1 expression in pDC cells: very little difference between the groups
  Percent surface expression of IFNAR1 in pDC cells: very little difference between the groups
[2]
  Serum IFNα levels compared to vehicle: lower serum IFNα levels compared to vehicle
[3]
  Expression levels of IFN-inducible genes (mRNA): no significant effect
